Columns and labels:
B. tabaci [1] = experiment: Free-choice bioassay: headspace or pure volatiles added to one of four cv Moneymaker tomato plants; assay type: in vivo, Bemisia tabaci (biotype Q, Almeria population); conditions: pure compound added to Moneymaker background
Procedure: A population of Bemisia tabaci was collected at a common greenhouse in Santa Maria del Aguila (Almeria, Spain) in October 2005. By PCR analyses this population was identified to belong to the Q-biotype. The population was reared in a climate chamber (Temperature 28° C., 16 h light) on a mixture of tomato and cucumber plants. Preference of the insects for particular plants (treated or untreated/control-treated) was tested in free choice bioassays.
Free choice experiments with B. tabaci were carried out in a greenhouse compartment (28° C., RH 65%). Light was supplied by high-pressure sodium lamps (Hortilex Schréder SON-T PIA GP 600 W) with a radiation of 250 W/m^2. The preference behaviour of B. tabaci biotype Q (Almeria population) and biotype B (labculture Netherlands) was compared in bioassays with different wild tomatoes (LA1777, LA2560, GI1560) and S. lycopersicum cv Moneymaker). Plants were placed inside a plastic covered wooden tray (170×100×20 cm) filled with soil, at equal distance from each other. Two hundred adult whiteflies were captured, placed at 4° C. for five minutes and then released in the middle of the setup. Ten and 20 minutes after release, the number of whiteflies on each plant was recorded. Since no differential behaviour between B. tabaci B and Q was found, all further bioassays were done with the Almeria (Q) population.
For bioassays with headspace (total headspace or single compounds) four potted tomato plants (S. esculentum cv Moneymaker) were placed in a square setup at a distance of 50 cm. One hundred and fifty adult whiteflies were released and recorded as described above. To test the effect of selected headspace components on repellence, synthetic standards (FLUKA) were applied to either 10 filter-papers discs (Whatman, 25 mm diameter) or 10 rubber septa (Sigma Aldrich, Z167258). Prior to loading, the septa were placed in CH2Cl2 for 24 h and air-dried for 3 days (Heath et al., 1986). The paper discs or septa containing volatiles were attached to one of the four plants with metal wire. The position of the treated tomato was randomised. Five minutes after placing the volatiles on the plant, whiteflies were released. For each component at least 8 replications were carried out. Treatments were administered in a setup in which compounds were always added to the same plant in comparison to 3 plants with empty carriers. Prior to each assay with volatiles, the experiment was done with the 4 plants in an untreated setup, in the same position to allow comparison in the same background.
Host preference with and without manipulated headspace by B. tabaci was explored in free choice assays. In each setup four cultivated tomatoes (cv. Moneymaker) were tested as described earlier. For the bioassays with volatiles rubber septa (Sigma Aldrich Z167258) were extracted with CH2Cl2 for 24 hours and dried to the air for 3 days. The desired blend of volatiles was added to the rubber septa in 100 μl hexane. Bioassays with pure components, or mixtures of pure components were carried out as described above.

B. tabaci antennae = experiment: Electroantennography (EAG); set-up: species or system Bemisia tabaci; conditions: 10^-3 dilution in paraffin oil; response to paraffin oil subtracted
Procedure: Electroantennography (EAG) was employed to confirm the responsiveness of the atennae to 10^−3 dilution in paraffin oil (Uvasol, Merck) of the chemicals described. Small pieces of filter paper (2 cm2; Schleicher & Schuell, Dassel, Germany) were soaked with 100 μl of the standard dilution or praffin oil only (control). The filter paper was inserted into a 10-ml glass syringe (Poulten & Graf GmbH, Wertheim, Germany). A reproducible stimulus was supplied by puffing 5 ml of air over the antenna (Schutz et al., 1999). The EAG response was recorded for each standard (10^−3) dilution. The response to paraffin oil was considered as a negative control and was subtracted from all the reported EAG measurements. The EAG response expressed as a potential difference across the electrodes (in mV) for the different pure chemicals is given in the right-hand column of Table 5.

B. tabaci [2] = experiment: Statistical correlation (stepwise-linear regression, MANOVA) of headspace volatiles with whitefly repellence ranking; set-up: species or system Bemisia tabaci; conditions: for compounds responsible for repellency or attraction of whitefly: linked to S. pennelli, S. habrochaites or cultivated S. lycopersicum headspace; for association: semiochemicals associated to B. tabaci repellence or attraction; for Effect on insects: volatiles of tomato headspace correlated to whitefly repellency/attraction score by linear regression
Text: In a large experiment (see Example 2), the headspace of 16 wild tomato accessions and 5 cultivated tomato lines were sampled and analyzed (6 repeats). In total 51 compounds were identified to be present in the captured headspace. Furthermore, the level of repellency/attraction of each of the 21 tomato accessions was established in free choice bioassays with B. tabaci (biotype Q), using a ranking scale of 1-7 (1=highest repellency to 7=lowest repellency). Next, the identified volatile compounds were correlated to the repellency/attraction score of each tomato accession through a linear regression analysis.
The headspace of 16 wild tomatoes and 5 cultivated tomatoes (Table 4) was collected. Undisturbed 3-weeks old tomato plants were transferred to 40-L desiccators. The headspace was sampled during 24 h including a 16 h light period, by trapping of the volatile components as described above. […] Each accession was sampled 6 times.
In a statistical analysis the correlation between the identified components of the tomato headspace and the ranking of whitefly repellence measured in the bioassays was made. Using two approaches, a stepwise-linear regression analysis and a MANOVA, 8 volatiles were identified to be correlated to whitefly repellence, whereas 24 other volatile compounds were eliminated as non-relevant for repellency or attraction.

[3] = system: adult whiteflies B. tabaci; conditions: cited from earlier work
[4] = system: fourth instar larvae of Colorado potato beetle; conditions: cited from earlier work
[5] = system: pests of cut flowers (e.g. B. tabaci); conditions: fumigants at 10-20 mg/l, after 2-4 hours of exposure; cited from earlier work

SMILES	effect on repellence/attractiveness of treated tomato plant (in words) (B. tabaci [1])	antennal response (EAG potential difference) (B. tabaci antennae) [mV]	compounds responsible for repellency or attraction of whitefly (B. tabaci [2])	association (B. tabaci [2])	Effect on insects (B. tabaci [2])	further results
CC(C)=CCC[C@H](C)c1ccc(C)cc1 [S-curcumene]	clear repellent effect	5.0	more unattractive	repellence	–	–
CC(C)=CCC[C@@H](C)[C@@H]1C=CC(C)=CC1 [7-epi zingiberene]	clear repellent effect	2.3	more unattractive	repellence	–	–
CCCCCCCCCCCC(C)=O [2-tridecanone]	–	–	–	–	–	toxic effect [3]: toxic effect
CC(C)=CCCC(C)[C@@H]1C=CC(C)=CC1 (stereo partly drawn) [zingiberene]	–	–	–	–	Repellent	–
Cc1ccc(C(C)C)cc1 [para-cymene]	–	2.4	repellent	repellence	Repellent	–
CC1=CCC(C(C)C)C=C1 (stereo not drawn) [Alpha-phellandrene]	decreased tomato attractiveness significantly	2.2	repellent	repellence	Repellent	–
CC1=CC=C(C(C)C)CC1 [Alpha-terpinene]	decreased tomato attractiveness significantly	4.1	repellent	repellence	Repellent	–
CCCCCCCCCC(C)=O [2-undecanone]	–	–	–	–	–	toxic effect [4]: toxic effect
CC(C)=CCCC(C)c1ccc(C)cc1 (stereo not drawn) [alpha-curcumene]	–	–	–	–	Repellent	–
CC1=CC2C(CC1)C2(C)C (stereo not drawn) [2-carene]	–	–	significantly correlated to the more attractive cultivated S. lycopersicum plants	–	Attractant	–
CC12CCC(CC1)C(C)(C)O2 [Cineole]	–	–	–	–	–	mortality [5]: caused mortality
C=CC(=C)CCC=C(C)C [beta-myrcene]	–	–	repellent	–	Repellent	–
C=CCc1ccc2c(c1)OCO2 [safrole]	–	–	–	–	–	mortality [5]: caused mortality
CC1=CCC(C(C)C)=CC1 [gamma-terpinene]	no significant behavioural effect	–	repellent	–	Repellent	–
C=C1C=CC(C(C)C)CC1 (stereo not drawn) [beta-phellandrene]	–	–	significantly correlated to the more attractive cultivated S. lycopersicum plants	–	Attractant	–
C=C(C)[C@H]1CC=C(C)CC1 [limonene]	–	–	significantly correlated to the more attractive cultivated S. lycopersicum plants	–	Attractant	–
